Converted amounts (≈) assume the structure as drawn.
Columns and labels:
[1] = Metabolic stability in human liver microsome assessed as hepatic clearance; format: ADME; details: liver microsomes
[2] = Kinetic solubility of compound; format: physicochemical; details: read-out: Kinetic_solubility
[3] = Lipophilicity, log D of the compound at pH 7.4; format: physicochemical; details: buffer

Row | CLhep predicted [1] [mL/min/kg] | solubility kinetic [2] [µM] | logD [3] | SMILES
1 | < 6 | – | – | O=C(COc1ccc(F)cc1)NC12CC(c3nnc([C@H]4C[C@@H](OC(F)(F)F)C4)o3)(C1)C2
2 | – | 19 (≈ 7.46 µg/mL) | 3.6 | O=C(COCC1CCC1)NC12CC(NC(=O)COc3ccc(Cl)cc3)(C1)C2
3 | – | 34 (≈ 13.4 µg/mL) | 3.4 | O=C(COc1ccc(Cl)cc1)NC12CC(NC(=O)COC3CCCC3)(C1)C2
4 | – | 141 (≈ 53.4 µg/mL) | 2.9 | O=C(COc1ccc(Cl)cc1)NC12CC(NC(=O)COC3CCC3)(C1)C2
5 | < 6 | – | – | O=C(NC12CC(c3nnc([C@H]4C[C@@H](OC(F)(F)F)C4)o3)(C1)C2)c1nc2cc(Cl)ccc2o1
6 | 11 | – | – | O=C(NC12CC(c3nnc([C@H]4C[C@@H](OC(F)(F)F)C4)o3)(C1)C2)c1cnc2cc(Cl)ccc2c1
7 | – | 194 (≈ 76.6 µg/mL) | 1.8 | O=C(COc1ccc(Cl)cc1)NC12CC(NC(=O)COC3CCOC3)(C1)C2 (stereo unspecified)
8 | – | < 1 | 3.7 | O=C(COc1ccc(Cl)cc1)N[C@H]1CC[C@H](NC(=O)COc2ccc(Cl)cc2)CC1
9 | 12 | – | – | O=C(NC12CC(c3nnc([C@H]4C[C@@H](OC(F)(F)F)C4)o3)(C1)C2)C1CCc2cc(Cl)ccc2O1 (stereo partly specified)
10 | 13 | – | 3.1 | OC(COC1CCC(Cl)C(F)C1)NC12CC(NC(O)CO[C@H]3C[C@@H](C(F)(F)F)C3)(C1)C2 (stereo partly specified)
